The record followed here is ChEMBL document CHEMBL1201862, “PubChem BioAssay data set” (2004).

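Each compound was tested at five concentrations against cells in 96-well plates for 48 hours. GI50 marks 50% less growth.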 The source made the active and inactive calls. Cut-off read from the data, not from the text of the source: active = GI50 up to about 1.1 µM and inactive = higher. A value given as a limit tells only on which side of the number the result lay.

Test systems include EKVX; MOLT-4; UACC-257; SNB-75; ACHN; SNB-19; UACC-62; UO-31; RXF 393; LXFL 529; COLO 205; TK-10; KM-20L2; M14; OVCAR-4; RXF 631; SR; Malme-3M; NCI/ADR-RES; MCF7.
What all share (experiment): NCI-60 cell line screen, 48 h

As for `O=C(c1ccccc1)c1ccc2c(c1)N=C(c1ccc(Cl)c(Cl)c1)CC(c1ccc3ccccc3c1)N2` (centres undefined), the GI50 in the test with EKVX, with MOLT-4, in the test with UACC-257, in the test with SNB-75, with ACHN and in the test on SNB-19 was > 100 µM (inactive) each time. Further, the GI50 in the test on UACC-62, with UO-31, in the test with RXF 393, in the test on LXFL 529, with COLO 205 and in the test with TK-10 was > 100 µM (inactive) each time. The GI50 in the test with KM-20L2, with M14, in the test with OVCAR-4, in the test with RXF 631 and in the test on SR was > 100 µM (inactive) in each case.

As to `CCN1CC2(CO)CCC(OC)C34C5CC6C(OC)CC(O)(C5C6OC)C(O)(C(OC)C23)C14` (centres undefined), the GI50 was > 375 µM (inactive) with Malme-3M; > 375 µM (inactive) in the test with NCI/ADR-RES; > 59.4 µM (inactive) in the test with EKVX; > 375 µM (inactive) with MOLT-4; > 375 µM (inactive) in the test on UACC-257; > 362 µM (inactive) in the test on SNB-75. Besides, the GI50 is > 375 µM (inactive) in the test with SNB-19; > 375 µM (inactive) with UACC-62; > 375 µM (inactive) with UO-31; > 375 µM (inactive) with RXF 393; > 375 µM (inactive) in the test on COLO 205; > 197 µM (inactive) with KM-20L2. In addition, the GI50 in the test on OVCAR-4 and with MCF7 was > 375 µM (inactive) throughout.

On to `O=C(Nc1cccc2c1[nH]c1c(-c3ccccc3)nccc12)c1ccccc1[N+](=O)[O-]`, for which the GI50 in the test on Malme-3M was > 100 µM (inactive); in the test with EKVX, 50.9 µM (inactive); with MOLT-4, 12.9 µM (inactive); with UACC-257 it was 74.6 µM (inactive); with SNB-75 it was 29.7 µM (inactive); with ACHN it was 20.9 µM (inactive). Moreover, the GI50 with SNB-19 is 59.8 µM (inactive); in the test with RXF 393, 12.6 µM (inactive); in the test on LXFL 529 it was 25.5 µM (inactive); in the test with COLO 205 it was 26.2 µM (inactive); in the test on TK-10 it was 33 µM (inactive); in the test on KM-20L2, 11.2 µM (inactive). Also, the GI50 in the test with M14 is 34.1 µM (inactive); in the test on OVCAR-4, 38.9 µM (inactive); in the test on RXF 631, 17.9 µM (inactive); in the test on SR, 12.5 µM (inactive).

As for `C=CCCC1(C)CCCNC1=S` (centres undefined), the GI50 in the test with Malme-3M, in the test on EKVX, in the test with MOLT-4, in the test on UACC-257, in the test with SNB-75 and in the test on ACHN was > 100 µM (inactive) each time. The GI50 was > 100 µM (inactive) in the test on SNB-19; > 100 µM (inactive) in the test with UACC-62; > 100 µM (inactive) in the test on UO-31; > 100 µM (inactive) with RXF 393; 37.7 µM (inactive) with COLO 205; > 100 µM (inactive) in the test on TK-10. The GI50 in the test with KM-20L2, with M14, in the test on OVCAR-4 and in the test with SR was > 100 µM (inactive) in each case.

In the case of `O=CNc1cccc2c3c([nH]c12)CCCCCC3`, the GI50 in the test with Malme-3M is > 85.5 µM (inactive); in the test on NCI/ADR-RES it was > 100 µM (inactive); in the test with EKVX, > 100 µM (inactive); in the test on MOLT-4, 66.1 µM (inactive); in the test on UACC-257, > 87.3 µM (inactive); with SNB-75 it was > 93.1 µM (inactive). The GI50 in the test with SNB-19 was > 100 µM (inactive); in the test with UACC-62 it was > 100 µM (inactive); in the test with UO-31 it was > 82.4 µM (inactive); with RXF 393, > 75.7 µM (inactive); with COLO 205, > 100 µM (inactive); with KM-20L2, > 100 µM (inactive). Also, the GI50 in the test with OVCAR-4 and with MCF7 was > 100 µM (inactive) in each case.

`COc1ccc(C2C(C#N)=C(O)NC(O)=C2C#N)cc1OC`: the GI50 in the test with Malme-3M, in the test with EKVX, in the test on MOLT-4, in the test with SNB-75, in the test on SNB-19 and in the test with UO-31 was > 100 µM (inactive) throughout. Moreover, the GI50 in the test on LXFL 529, with COLO 205, with KM-20L2, in the test with M14, in the test on RXF 631 and with SR was > 100 µM (inactive) each time.

For the compound `CCC12CCC[C@@]13C=C[C@H](O3)C(C)(C)C2=O` (some centres undefined), the GI50 in the test on Malme-3M, in the test with EKVX, in the test on MOLT-4, in the test with UACC-257, in the test with SNB-75 and in the test on ACHN was > 100 µM (inactive) in each case. The GI50 with SNB-19, with UACC-62, in the test on UO-31, with RXF 393, in the test with LXFL 529 and in the test on TK-10 was > 100 µM (inactive) in each case. Moreover, the GI50 with KM-20L2, in the test with M14, with OVCAR-4, in the test with RXF 631 and in the test with SR was > 100 µM (inactive) in each case.

As to `CN(C)CCNCc1c2ccccc2c(CNCCN(C)C)c2ccccc12`, the GI50 is 18.4 µM (inactive) in the test on Malme-3M; > 100 µM (inactive) in the test with NCI/ADR-RES; 65.8 µM (inactive) in the test on EKVX; 2.2 µM (inactive) in the test on MOLT-4; 18 µM (inactive) with UACC-257; 43.6 µM (inactive) in the test with SNB-75. Moreover, the GI50 is 26.1 µM (inactive) in the test on UACC-62; > 100 µM (inactive) in the test with UO-31; 20.6 µM (inactive) in the test with RXF 393; 9.53 µM (inactive) with COLO 205; 7.29 µM (inactive) in the test on KM-20L2; 28.3 µM (inactive) in the test on OVCAR-4. For the same compound, in the test on MCF7, the GI50 was 26 µM (inactive).

Regarding `Nc1nc(=O)n(C2OC(CO)C(O)C2O)cc1F` (centres undefined), the GI50 was 0.76 µM (active) in the test on NCI/ADR-RES; < 0.0166 µM (active) in the test with MOLT-4; 3.78 µM (inactive) with UACC-257; 1.91 µM (inactive) in the test on SNB-19; 1.36 µM (inactive) in the test on UACC-62; 10.3 µM (inactive) in the test on UO-31. The GI50 with RXF 393 is 43.5 µM (inactive); in the test on COLO 205, 79.4 µM (inactive); in the test on KM-20L2, 2.29 µM (inactive); in the test on OVCAR-4 it was > 100 µM (inactive); with MCF7, 3.99 µM (inactive).

Turning to `O[C@H]1[C@H](O)[C@@H](O)CN2CC[C@H](O)[C@H]12` [CASTANOSPERMINE], the GI50 with Malme-3M is > 90.6 µM (inactive); in the test with NCI/ADR-RES, > 100 µM (inactive); in the test with EKVX, > 100 µM (inactive); in the test with MOLT-4, > 100 µM (inactive); in the test on UACC-257, > 100 µM (inactive); in the test on SNB-75 it was > 100 µM (inactive). Moreover, the GI50 with SNB-19 was > 100 µM (inactive); in the test on UACC-62, > 100 µM (inactive); with UO-31, > 94.4 µM (inactive); in the test with RXF 393, > 100 µM (inactive); with COLO 205, > 100 µM (inactive); in the test with KM-20L2 it was > 100 µM (inactive). Also, the GI50 in the test with OVCAR-4 is > 86.7 µM (inactive); in the test with MCF7, > 100 µM (inactive).
